Experimental data taken from patent publication US4490291A, “Nonapeptide amides” (Takeda Chemical Industries, Ltd., priority 1973, dated 1984).
Non-standard residues stand in square brackets, D forms with d. Residues, ends and D or L forms follow the SMILES beside them. pGlu = O=C1CC[C@@H](C(=O)O)N1

test system: Sprague-Dawley rats (4-day cycling female); assay: Ovulation-inducing activity in rats, ED50 compared with LH-RH; format: in vivo; conditions: product of process (III) compared with product of process (I) of Example 5(c)
Procedure: Ovulation-inducing activity is determined in Sprague-Dawley rats (4-day cycling female) in which the injection of the compound was made subcutaneously at 14:30 on the day of diestrous, and the ovulated ova in the ampilla of the oviduct were examined on the morning of the next day. The results (ED50) were compared with that (ED50) of LH-RH itself. The assay results on the object compounds are as follows.

| Compound | ED50 value of ovulation inducing activity |
| --- | --- |
| CCNC(=O)[C@@H]1CCCN1C(=O)[C@H](CCCNC(=N)N)NC(=O)[C@H](CC(C)C)NC(=O)[C@@H](C)NC(=O)[C@H](Cc1ccccc1)NC(=O)[C@H](CO)NC(=O)[C@H](Cc1c[nH]c2ccccc12)NC(=O)[C@H](Cc1c[nH]cn1)NC(=O)[C@@H]1CCC(=O)N1 [His Phe Leu ethyl, (Pyr)Glu--His--Trp--Ser--Phe--(D)--Ala--Leu--Arg--Pro--NH--CH2 --CH3] ([pGlu]HWSF[dA]LRP-NHEt) | identical |

same assay, conditions: subcutaneous injection at 14:30 on the day of diestrous; ovulated ova in oviduct examined next morning; natural LH-RH control = 100%

| Compound | Relative ovulation-inducing activity (ED50 compared with that of LH-RH itself) |
| --- | --- |
| (Pyr)Glu--p--NH2 --Phe--Trp--Ser--Tyr--(D)--Ala--Leu--Arg--Pro--NH--CH2 --CH3 [p-NH2 --Phe Tyr Leu ethyl] | 2,150% |
| CCNC(=O)[C@@H]1CCCN1C(=O)[C@H](CCCNC(=N)N)NC(=O)[C@H](CC(C)C)NC(=O)[C@@H](C)NC(=O)[C@H](Cc1ccc(O)cc1)NC(=O)[C@H](CO)NC(=O)[C@H](Cc1c[nH]c2ccccc12)NC(=O)[C@H](Cc1c[nH]cn1)NC(=O)[C@@H]1CCC(=O)N1 [His Tyr Leu ethyl, (Pyr)Glu--His--Trp--Ser--Tyr--(D)--Ala--Leu--Arg--Pro--NH--CH2 --CH3] | 6,100% |
| CC(C)C[C@H](NC(=O)CNC(=O)[C@H](Cc1ccc(O)cc1)NC(=O)[C@H](CO)NC(=O)[C@H](Cc1c[nH]c2ccccc12)NC(=O)[C@H](Cc1c[nH]cn1)NC(=O)[C@@H]1CCC(=O)N1)C(=O)N[C@@H](CCCNC(=N)N)C(=O)N1CCC[C@H]1C(=O)NCC(N)=O [natural LH--RH, (Pyr)Glu-His-Trp-Ser-Tyr-Gly-Leu-Arg-Pro-Gly-NH2, reference compound] | 100% |
| CCCC[C@H](NC(=O)[C@@H](C)NC(=O)[C@H](Cc1ccc(O)cc1)NC(=O)[C@H](CO)NC(=O)[C@H](Cc1c[nH]c2ccccc12)NC(=O)[C@H](Cc1c[nH]cn1)NC(=O)[C@@H]1CCC(=O)N1)C(=O)N[C@@H](CCCNC(=N)N)C(=O)N1CCC[C@H]1C(=O)NCC [His Tyr Nle ethyl, (Pyr)Glu--His--Trp--Ser--Tyr--(D)--Ala--Nle--Arg--Pro--NHCH2 CH3] | 4,800% |
| CCNC(=O)[C@@H]1CCCN1C(=O)[C@H](CCCNC(=N)N)NC(=O)[C@H](CC(C)C)NC(=O)[C@@H](C)NC(=O)[C@H](Cc1ccccc1)NC(=O)[C@H](CO)NC(=O)[C@H](Cc1c[nH]c2ccccc12)NC(=O)[C@H](Cc1c[nH]cn1)NC(=O)[C@@H]1CCC(=O)N1 [His Phe Leu ethyl, (Pyr)Glu--His--Trp--Ser--Phe--(D)--Ala--Leu--Arg--Pro--NH--CH2 --CH3] ([pGlu]HWSF[dA]LRP-NHEt) | 5,810% |
| CCNC(=O)[C@@H]1CCCN1C(=O)[C@H](CCCNC(=N)N)NC(=O)[C@H](CC(C)C)NC(=O)[C@@H](C)NC(=O)[C@H](Cc1ccc(O)cc1)NC(=O)[C@H](CO)NC(=O)[C@H](Cc1c[nH]c2ccccc12)NC(=O)[C@H](Cc1ccc(O)cc1)NC(=O)[C@@H]1CCC(=O)N1 [Tyr Tyr Leu ethyl, (Pyr)Glu--Tyr--Trp--Ser--Tyr--(D)--Ala--Leu--Arg--Pro--NHCH2 CH3] ([pGlu]YWSY[dA]LRP-NHEt) | 2,010% |
| CCNC(=O)[C@@H]1CCCN1C(=O)[C@H](CCCNC(=N)N)NC(=O)[C@@H](NC(=O)[C@@H](C)NC(=O)[C@H](Cc1ccccc1)NC(=O)[C@H](CO)NC(=O)[C@H](Cc1c[nH]c2ccccc12)NC(=O)[C@H](Cc1c[nH]cn1)NC(=O)[C@@H]1CCC(=O)N1)[C@@H](C)CC [His Phe Ile ethyl, (Pyr)Glu--His--Trp--Ser--Phe--(D)--Ala--Ile--Arg--Pro--NHCH2 CH3] ([pGlu]HWSF[dA]IRP-NHEt) | 3,200% |
